Patent US20120230951A1 (priority 2011, published 2012)
Like-named read-outs stand apart in the source and are kept apart here.

Experiments:
[1] = system: GT-1a pRLuc H771b 75 S/I subgenomic replicon cell line; test: HCV GT-1a replicon luciferase reporter assay; format: cell-based; details: Hepatitis C virus, GT1A, 72 h, read-out: GT-1a (IC50) (nM)
Outline: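 Huh-7-derived subgenomic replicon cells (GT-1b Con1 2209-23, 5000/well; GT-1a H77 chimera with Con1 NS3 first 75 aa, 3000/well) in 5% FBS DMEM; compounds added 24 h post-plating, 3-fold dilutions, 1% DMSO. Renilla luciferase read after 72 h; EC50 is 50% signal reduction versus untreated, non-linear fit.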

[2] = system: HCV GT1b replicon (2209-23 cell line, GT-1b Con1 subgenomic replicon in Huh-7); test: HCV GT1b replicon luciferase reporter assay; format: cell-based; details: Hepatitis C virus
Text: Determination of compounds HCV GT1b inhibitory replicon activity using the replicon luciferase reporter assay
The 2209-23 cell line was developed at Roche by stable transfection of the hepatoma cell line Huh-7 with a GT-1b Con1 subgenomic bicistronic replicon as previously described. Subgenomic replicon cell line was established in cured Huh7 cells, obtained from R. Bartenschlager (J. Virol. 2003 March; 77 (5):3007-19) The GT-1a H77 subgenomic replicon vector pRLuc H771b 75 S/I, was created by replacing the non structural region of the GT-1b Con1 subgenomic replicon by the one of the H77 strain, except for the first 75 amino acids of the NS3 protein that are from GT-1b Con1 strain. (J. Virol. 2001 77:5352-59) The GT-1a pRLuc H771b 75 S/I subgenomic replicon cell line was established in cured Huh7 cells, obtained from R. Bartenschlager. (J. Virol. 2003 March; 77 (5):3007-19)
All the subgenomic replicon cell lines were cultured in Dulbecco's Modified Eagle Medium (DMEM-Glutamax™-I; Invitrogen Cat #10569-010). The medium was supplemented with 10% Fetal Bovine Serum (Invitrogen Cat #10082-147), 1% penicillin/streptomycin (Mediatech Cat #30-002-CI) and 500 μg/ml of G418 (Mediatech Cat #30-234-CI). Cells were maintained at 37° C. in a humidified 5% CO2 atmosphere.
2209-23 cells were plated at a cell density of 5000 cells per well in 96 well plates (Becton Dickinson, Cat #35 3296). Cells were plated in 90 μl of Dulbecco's Modified Eagle Medium (DMEM-Glutamax™-I), (Invitrogen Cat #10569-010) medium was supplemented with 5% Fetal Bovine Serum (Invitrogen Cat #10082-147), 1% penicillin/streptomycin (Mediatech Cat #30-002-CI). The pRluc H771b 75 S/I cells were plated in 96-well plate at 3000 cells/well in DMEM-Glutamax™-I containing 5% FBS and 1% penicillin/streptomycin in 90 μl final volume. Cells were allowed to equilibrate for 24 hours at 37° C. and 5% CO2 at which time compounds were added. Compounds (or medium as a control) were added 24 hours post-plating in 3 fold dilutions at a final DMSO concentration of 1% in 10 ul volume. Renilla luciferase reporter signal was read 72 hours after addition of compounds using the Renilla Luciferase Assay System (Promega, cat #E2820). EC50 values were defined as the compound concentration at which a 50% reduction in the levels of renilla luciferase reporter was observed as compared to control samples in the absence of compound and was determined by non-linear fitting of compound dose-response data. The EC50 was approximated if maximum percentage inhibition was less than 90% and more than 70%.

[3] = Huh-7, 2209-23 cells (GT-1b Con1), Renilla luciferase read 72 hours after addition of compounds, read-out: GT-1b (IC50)

Row | Compound | IC50 [1] | IC50 ([2]; Huh-7, 72 h, read-out: GT-1b (IC50) (nM)) | IC50 [2, 3]
1 | COC(=O)N[C@H]1CCc2cccc3c2N(C1=O)[C@H](c1ncc(-c2cnc4cc(-c5ccc(-c6cnc([C@@H]7CC(F)(F)CN7C(=O)[C@@H](NC(=O)OC)C(C)C)[nH]6)cc5)ccc4c2)[nH]1)C3 [Compound I-19, ((2S,5S)-2-{5-[7-(4-{2-[(S)-1-((S)-2-Methoxycarbonylamino-3-methyl-butyryl)-4,4-difluoro-pyrrolidin-2-yl]-3H-imidazol-4-yl}-phenyl)-quinolin-3-yl]-1H-imidazol-2-yl}-4-oxo-1,2,4,5,6,7-hexahydro-azepino[3,2,1-hi]indol-5-yl)-carbamic acid methyl ester trifluroacetic acid] | 2.89 nM | 0.16 nM | –
2 | COC(=O)N[C@H]1CC(=O)c2cccc3c2N(C1=O)[C@H](c1ncc(-c2ccc(-c4ccc(-c5cnc([C@@H]6CCCN6C(=O)[C@@H](NC(=O)OC)C(C)C)[nH]5)cc4)cc2)[nH]1)C3 [Compound I-28, {(2S,5S)-2-[5-(4′-{2-[(S)-1-((S)-2-Methoxycarbonylamino-3-methyl-butyryl)-pyrrolidin-2-yl]-3H-imidazol-4-yl}-biphenyl-4-yl)-1H-imidazol-2-yl]-4,7-dioxo-1,2,4,5,6,7-hexahydro-azepino[3,2,1-hi]indol-5-yl}-carbamic acid methyl ester] | 1.81 nM | – | 0.01 nM
3 | COC(=O)N[C@H]1CC(O)c2cccc3c2N(C1=O)[C@H](c1ncc(-c2ccc(-c4ccc(-c5cnc([C@@H]6CCCN6C(=O)[C@@H](NC(=O)OC)C(C)C)[nH]5)cc4)cc2)[nH]1)C3 (stereo partly drawn) [Compound I-29, {(2S,5S)-7-Hydroxy-2-[5-(4′-{2-[(S)-1-((S)-2-methoxycarbonylamino-3-methyl-butyryl)-pyrrolidin-2-yl]-3H-imidazol-4-yl}-biphenyl-4-yl)-1H-imidazol-2-yl]-4-oxo-1,2,4,5,6,7-hexahydro-azepino[3,2,1-hi]indol-5-yl}-carbamic acid methyl ester] | 1.02 nM | – | 0.01 nM
4 | COC(=O)N[C@H]1CCc2cccc3c2N(C1=O)[C@H](c1ncc(-c2ccc(-c4ccc5cc(-c6cnc([C@@H]7CCCN7C(=O)[C@@H](NC(=O)OC)C(C)C)[nH]6)ccc5c4)cc2)[nH]1)C3 [Compound I-31, {(2S,5S)-2-[5-(4-(6-{2-[(S)-1-((S)-2-Methoxycarbonylamino-3-methyl-butyryl)-pyrrolidin-2-yl]-3H-imidazol-4-yl}-naphthalen-2-yl)-phenyl)-1H-imidazol-2-yl]-4-oxo-1,2,4,5,6,7-hexahydro-azepino[3,2,1-hi]indol-5-yl}-carbamic acid methyl ester] | 1.13 nM | – | 0.41 nM
5 | COC(=O)N[C@H]1CCc2cccc3c2N(C1=O)[C@H](c1ncc(-c2ccc(-c4ccc(-c5cnc([C@@H]6CCCN6C(=O)[C@@H](NC(=O)OC)C(C)C)[nH]5)cc4)c(F)c2)[nH]1)C3 [Compound I-35, {(2S,5S)-2-[5-(2-Fluoro-4′-{2-[(S)-1-((S)-2-methoxycarbonylamino-3-methyl-butyryl)-pyrrolidin-2-yl]-1H-imidazol-4-yl}-biphenyl-4-yl)-1H-imidazol-2-yl]-4-oxo-1,2,4,5,6,7-hexahydro-azepino[3,2,1-hi]indol-5-yl}-carbamic acid methyl ester] | 5.92 nM | – | 0.01 nM
6 | COC(=O)N[C@@H](CCS(C)(=O)=O)C(=O)N1CCC[C@H]1c1ncc(-c2ccc(-c3ccc(-c4cnc([C@@H]5Cc6cccc7c6N5C(=O)[C@@H](NC(=O)OC)CC7)[nH]4)cc3)cc2)[nH]1 [Compound I-51, {(2S,5S)-2-[5-(4-{2-[(S)-1-((S)-4-Methanesulfonyl-2-methoxycarbonylamino-butyl)-pyrolidin-2-yl]-3H-imidazol-4-yl}-biphenyl-4-yl)-1H-imidazol-2-yl]-4-oxo-1,2,4,5,6,7-hexahydro-azepino[3,2,1-hi]indol-5-yl}-carbamic acid methyl ester] | 16.6 nM | – | 0.03 nM
7 | COC(=O)N[C@H]1CCc2cccc3c2N(C1=O)[C@H](c1ncc(-c2ccc(-c4cnc5cc(-c6cnc([C@@H]7CCCN7C(=O)[C@@H](NC(=O)OC)C(C)C)[nH]6)ccc5n4)cc2)[nH]1)C3 [Compound I-52, ((2S,5S)-2-{5-[4-(6-{2-[(S)-1-((S)-2-Methoxycarbonylamino-3-methyl-butyryl)-pyrrolidin-2-yl]-3H-imidazol-4-yl}-quinoxalin-2-yl)-phenyl]-1H-imidazol-2-yl}-4-oxo-1,2,4,5,6,7-hexahydro-azepino[3,2,1-hi]indol-5-yl)-carbamicacid methyl ester] | 0.41 nM | – | 0.03 nM
8 | COC(=O)N[C@H]1CCc2cccc3c2N(C1=O)[C@H](c1ncc(-c2ccc(-c4cnc5cc(-c6cnc([C@@H]7CCCN7C(=O)[C@H](NC(=O)OC)c7ccccc7)[nH]6)ccc5n4)cc2)[nH]1)C3 [Compound I-55, ((2S,5S)-2-{5-[4-(6-{2-[(S)-1-((R)-2-Methoxycarbonylamino-2-phenyl-acetyl)-pyrrolidin-2-yl]-3H-imidazol-4-yl}-quinoxalin-2-yl)-phenyl]-1H-imidazol-2-yl}-4-oxo-1,2,4,5,6,7-hexahydro-azepino[3,2,1-hi]indol-5-yl)-carbamic acid methyl ester] | 0.79 nM | – | 0.01 nM
9 | COC(=O)N[C@H]1CCc2cccc3c2N(C1=O)[C@H](c1ncc(-c2ccc4nc(-c5ccc(-c6cnc([C@@H]7CCCN7C(=O)[C@@H](NC(=O)OC)C(C)C)[nH]6)cc5)cnc4c2)[nH]1)C3 [Compound I-59, ((2S,5S)-2-{5-[2-(4-{2-[(S)-1-((S)-2-Methoxycarbonylamino-3-methyl-butyryl)-pyrrolidin-2-yl]-3H-imidazol-4-yl}-phenyl)-quinoxalin-6-yl]-1H-imidazol-2-yl}-4-oxo-1,2,4,5,6,7-hexahydro-azepino[3,2,1-hi]indol-5-yl)-carbamic acid methyl ester] | 0.709 nM | – | 0.07 nM
